Experimental data reported in ChEMBL document CHEMBL2331144, “Synthesis and anticancer activity of analogues of phenstatin, with a phenothiazine A-ring, as a new class of microtubule-targeting agents” (Bioorg Med Chem Lett, 2013).

Legend:
SR = assay: Growth inhibition of human SR cells after 48 hrs by sulforhodamine B assay; type: functional
CAKI-1 = assay: Growth inhibition of human CAKI-1 cells after 48 hrs by sulforhodamine B assay; type: functional; settings: CAKI-1, 48 h
TK-10 = assay: Growth inhibition of human TK10 cells after 48 hrs by sulforhodamine B assay; type: functional; settings: TK-10, 48 h
SN12C = assay: Growth inhibition of human SN12C cells after 48 hrs by sulforhodamine B assay; type: functional
CCRF-CEM = assay: Growth inhibition of human CCRF-CEM cells after 48 hrs by sulforhodamine B assay; type: functional
SNB-75 = assay: Growth inhibition of human SNB75 cells after 48 hrs by sulforhodamine B assay; type: functional; settings: SNB-75, 48 h
SW-620 = assay: Growth inhibition of human SW620 cells after 48 hrs by sulforhodamine B assay; type: functional; settings: SW-620, 48 h
SF-268 = assay: Growth inhibition of human SF268 cells after 48 hrs by sulforhodamine B assay; type: functional; settings: SF-268, 48 h
LOX IMVI = assay: Growth inhibition of human LOXIMVI cells after 48 hrs by sulforhodamine B assay; type: functional
HT-29 = assay: Growth inhibition of human HT-29 cells after 48 hrs by sulforhodamine B assay; type: functional; settings: HT-29, 48 h
HL-60(TB) = assay: Growth inhibition of human HL-60(TB) cells after 48 hrs by sulforhodamine B assay; type: functional; settings: HL-60, 48 h
HCT-116 = assay: Growth inhibition of human HCT116 cells after 48 hrs by sulforhodamine B assay; type: functional; settings: HCT-116, 48 h
IGROV-1 = assay: Growth inhibition of human IGROV1 cells after 48 hrs by sulforhodamine B assay; type: functional; settings: IGROV-1, 48 h
UACC-62 = assay: Growth inhibition of human UACC62 cells after 48 hrs by sulforhodamine B assay; type: functional; settings: UACC-62, 48 h
COLO 205 = assay: Growth inhibition of human COLO205 cells after 48 hrs by sulforhodamine B assay; type: functional; settings: COLO 205, 48 h
RXF 393 = assay: Growth inhibition of human RXF393 cells after 48 hrs by sulforhodamine B assay; type: functional; settings: RXF 393, 48 h
MDA-MB-231 = assay: Growth inhibition of human MDA-MB-231 cells after 48 hrs by sulforhodamine B assay; type: functional; settings: MDA-MB-231, 48 h
SK-MEL-28 = assay: Growth inhibition of human SK-MEL-28 cells after 48 hrs by sulforhodamine B assay; type: functional; settings: SK-MEL-28, 48 h
ACHN = assay: Growth inhibition of human ACHN cells after 48 hrs by sulforhodamine B assay; type: functional
KM12 = assay: Growth inhibition of human KM12 cells after 48 hrs by sulforhodamine B assay; type: functional; settings: KM12, 48 h
UO-31 = assay: Growth inhibition of human UO31 cells after 48 hrs by sulforhodamine B assay; type: functional; settings: UO-31, 48 h
A549 = assay: Growth inhibition of human A549/ATCC cells after 48 hrs by sulforhodamine B assay; type: functional; settings: A549, 48 h
MDA-MB-435 = assay: Growth inhibition of human MDA-MB-435 cells after 48 hrs by sulforhodamine B assay; type: functional; settings: MDA-MB-435, 48 h
NCI-H460 = assay: Growth inhibition of human NCI-H460 cells after 48 hrs by sulforhodamine B assay; type: functional; settings: NCI-H460, 48 h
T47D = assay: Growth inhibition of human T47D cells after 48 hrs by sulforhodamine B assay; type: functional
786-0 = assay: Growth inhibition of human 786-0 cells after 48 hrs by sulforhodamine B assay; type: functional; settings: 786-0, 48 h
UACC-257 = assay: Growth inhibition of human UACC257 cells after 48 hrs by sulforhodamine B assay; type: functional; settings: UACC-257, 48 h
[1] = Growth inhibition of human HCC2998 cells after 48 hrs by sulforhodamine B assay; type: functional; settings: HCC 2998, 48 h
[2] = Growth inhibition of human EKVX cells after 48 hrs by sulforhodamine B assay; type: functional
HOP-92 = assay: Growth inhibition of human HOP92 cells after 48 hrs by sulforhodamine B assay; type: functional; settings: HOP-92, 48 h
SK-MEL-5 = assay: Growth inhibition of human SK-MEL-5 cells after 48 hrs by sulforhodamine B assay; type: functional; settings: SK-MEL-5, 48 h
MOLT-4 = assay: Growth inhibition of human MOLT4 cells after 48 hrs by sulforhodamine B assay; type: functional; settings: MOLT-4, 48 h
[3] = Growth inhibition of human Hs 578T cells after 48 hrs by sulforhodamine B assay; type: functional
[4] = Growth inhibition of human NCI-ADR-RES cells after 48 hrs by sulforhodamine B assay; type: functional
RPMI-8226 = assay: Growth inhibition of human RPMI8226 cells after 48 hrs by sulforhodamine B assay; type: functional; settings: RPMI-8226, 48 h
SF-295 = assay: Growth inhibition of human SF295 cells after 48 hrs by sulforhodamine B assay; type: functional; settings: SF-295, 48 h
Ovis aries = species: Ovis aries; assay: Inhibition of sheep brain tubulin polymerization at 100 uM using DAPI by fluorimetry
M14 = assay: Growth inhibition of human M14 cells after 48 hrs by sulforhodamine B assay; type: functional; settings: M14, 48 h
NCI-H23 = assay: Growth inhibition of human NCI-H23 cells after 48 hrs by sulforhodamine B assay; type: functional; settings: NCI-H23, 48 h
OVCAR-3 = assay: Growth inhibition of human OVCAR3 cells after 48 hrs by sulforhodamine B assay; type: functional; settings: OVCAR-3, 48 h
HOP-62 = assay: Growth inhibition of human HOP62 cells after 48 hrs by sulforhodamine B assay; type: functional; settings: HOP-62, 48 h
K562 = assay: Growth inhibition of human K562 cells after 48 hrs by sulforhodamine B assay; type: functional; settings: K562, 48 h
DU-145 = assay: Growth inhibition of human DU145 cells after 48 hrs by sulforhodamine B assay; type: functional; settings: DU-145, 48 h
SF-539 = assay: Growth inhibition of human SF539 cells after 48 hrs by sulforhodamine B assay; type: functional; settings: SF-539, 48 h
MCF7 = assay: Growth inhibition of human MCF7 cells after 48 hrs by sulforhodamine B assay; type: functional; settings: MCF7, 48 h
A498 = assay: Growth inhibition of human A498 cells after 48 hrs by sulforhodamine B assay; type: functional; settings: A498, 48 h
OVCAR-4 = assay: Growth inhibition of human OVCAR4 cells after 48 hrs by sulforhodamine B assay; type: functional; settings: OVCAR-4, 48 h
BT-549 = assay: Growth inhibition of human BT549 cells after 48 hrs by sulforhodamine B assay; type: functional; settings: BT-549, 48 h
NCI-H522 = assay: Growth inhibition of human NCI-H522 cells after 48 hrs by sulforhodamine B assay; type: functional; settings: NCI-H522, 48 h
SK-OV-3 = assay: Growth inhibition of human SKOV3 cells after 48 hrs by sulforhodamine B assay; type: functional; settings: SK-OV-3, 48 h
OVCAR-5 = assay: Growth inhibition of human OVCAR5 cells after 48 hrs by sulforhodamine B assay; type: functional; settings: OVCAR-5, 48 h
Malme-3M = assay: Growth inhibition of human MALME-3M cells after 48 hrs by sulforhodamine B assay; type: functional
OVCAR-8 = assay: Growth inhibition of human OVCAR8 cells after 48 hrs by sulforhodamine B assay; type: functional; settings: OVCAR-8, 48 h
HCT-15 = assay: Growth inhibition of human HCT15 cells after 48 hrs by sulforhodamine B assay; type: functional; settings: HCT-15, 48 h
PC-3 = assay: Growth inhibition of human PC3 cells after 48 hrs by sulforhodamine B assay; type: functional; settings: PC-3, 48 h

Question: With CCOC(=O)c1cc(C(=O)N2c3ccccc3Sc3ccccc32)n2c(C)cccc12 as the molecule, how does the GI50 (SR) read?
Answer: 2.42 µM

Question: And the GI50 (CAKI-1)?
Answer: 6.23 µM

Question: And the GI50 (TK-10)?
Answer: 6.73 µM

Question: And the GI50 (SN12C)?
Answer: 5.53 µM

Question: What about the GI50 (CCRF-CEM) of the same molecule?
Answer: 2.39 µM

Question: And the GI50 (SNB-75)?
Answer: 1.88 µM

Question: What about the GI50 (SW-620) of the same molecule?
Answer: 3.14 µM

Question: What about the GI50 (SF-268) of the same molecule?
Answer: 7.11 µM

Question: What about the GI50 (LOX IMVI) of the same molecule?
Answer: 4.57 µM

Question: What about the GI50 (HT-29) of the same molecule?
Answer: 2.95 µM

Question: And the GI50 (HL-60(TB))?
Answer: 3.08 µM

Question: And the GI50 (HCT-116)?
Answer: 2.89 µM

Question: What about the GI50 (IGROV-1) of the same molecule?
Answer: 5.78 µM

Question: What about the GI50 (UACC-62) of the same molecule?
Answer: 2.55 µM

Question: And the GI50 (COLO 205)?
Answer: 3.13 µM

Question: And the GI50 (RXF 393)?
Answer: 2.77 µM

Question: And the GI50 (MDA-MB-231)?
Answer: 6.04 µM

Question: What about the GI50 (SK-MEL-28) of the same molecule?
Answer: 3.5 µM

Question: What about the GI50 (ACHN) of the same molecule?
Answer: 4.85 µM

Question: What about the GI50 (KM12) of the same molecule?
Answer: 2.94 µM

Question: What about the GI50 (UO-31) of the same molecule?
Answer: 3.85 µM

Question: What about the GI50 (A549) of the same molecule?
Answer: 3.81 µM

Question: And the GI50 (MDA-MB-435)?
Answer: 0.672 µM

Question: What about the GI50 (NCI-H460) of the same molecule?
Answer: 3.75 µM

Question: And the GI50 (T47D)?
Answer: 4.16 µM

Question: And the GI50 (786-0)?
Answer: 4.17 µM

Question: What about the GI50 (UACC-257) of the same molecule?
Answer: 3.24 µM

Question: What about the GI50 [1] of the same molecule?
Answer: 6.71 µM

Question: And the GI50 [2]?
Answer: 5.84 µM

Question: And the GI50 (HOP-92)?
Answer: 2.69 µM

Question: What about the GI50 (SK-MEL-5) of the same molecule?
Answer: 2.55 µM

Question: What about the GI50 (MOLT-4) of the same molecule?
Answer: 3.72 µM

Question: And the GI50 [3]?
Answer: 1.5 µM

Question: And the GI50 [4]?
Answer: 2.17 µM

Question: And the GI50 (RPMI-8226)?
Answer: 2.16 µM

Question: What about the GI50 (SF-295) of the same molecule?
Answer: 4.89 µM

Question: And the inhibition (Ovis aries)?
Answer: 31%

Question: What about the GI50 (M14) of the same molecule?
Answer: 2.6 µM

Question: And the GI50 (NCI-H23)?
Answer: 3.55 µM

Question: What about the GI50 (OVCAR-3) of the same molecule?
Answer: 4.24 µM

Question: What about the GI50 (HOP-62) of the same molecule?
Answer: 6.14 µM

Question: What about the GI50 (K562) of the same molecule?
Answer: 3.78 µM

Question: What about the GI50 (DU-145) of the same molecule?
Answer: 8.22 µM

Question: And the GI50 (SF-539)?
Answer: 4.13 µM

Question: What about the GI50 (MCF7) of the same molecule?
Answer: 3.03 µM

Question: And the GI50 (A498)?
Answer: 1.91 µM

Question: And the GI50 (OVCAR-4)?
Answer: 7.93 µM

Question: What about the GI50 (BT-549) of the same molecule?
Answer: 2.93 µM

Question: What about the GI50 (NCI-H522) of the same molecule?
Answer: 1.82 µM

Question: What about the GI50 (SK-OV-3) of the same molecule?
Answer: 4.04 µM

Question: What about the GI50 (OVCAR-5) of the same molecule?
Answer: 65.8 µM

Question: What about the GI50 (Malme-3M) of the same molecule?
Answer: 6.13 µM

Question: And the GI50 (OVCAR-8)?
Answer: 3.76 µM

Question: And the GI50 (HCT-15)?
Answer: 4.52 µM

Question: And the GI50 (PC-3)?
Answer: 2.2 µM
